{"source": "PubChem BioAssay AID651868", "about": "(The Scripps Research Institute Molecular Screening Center, 2012)", "molecular_target": "Protein-arginine deiminase type-1 (Homo sapiens) (UniProt Q9ULC6)", "sequence (Q9ULC6 whole entry, looked up)": "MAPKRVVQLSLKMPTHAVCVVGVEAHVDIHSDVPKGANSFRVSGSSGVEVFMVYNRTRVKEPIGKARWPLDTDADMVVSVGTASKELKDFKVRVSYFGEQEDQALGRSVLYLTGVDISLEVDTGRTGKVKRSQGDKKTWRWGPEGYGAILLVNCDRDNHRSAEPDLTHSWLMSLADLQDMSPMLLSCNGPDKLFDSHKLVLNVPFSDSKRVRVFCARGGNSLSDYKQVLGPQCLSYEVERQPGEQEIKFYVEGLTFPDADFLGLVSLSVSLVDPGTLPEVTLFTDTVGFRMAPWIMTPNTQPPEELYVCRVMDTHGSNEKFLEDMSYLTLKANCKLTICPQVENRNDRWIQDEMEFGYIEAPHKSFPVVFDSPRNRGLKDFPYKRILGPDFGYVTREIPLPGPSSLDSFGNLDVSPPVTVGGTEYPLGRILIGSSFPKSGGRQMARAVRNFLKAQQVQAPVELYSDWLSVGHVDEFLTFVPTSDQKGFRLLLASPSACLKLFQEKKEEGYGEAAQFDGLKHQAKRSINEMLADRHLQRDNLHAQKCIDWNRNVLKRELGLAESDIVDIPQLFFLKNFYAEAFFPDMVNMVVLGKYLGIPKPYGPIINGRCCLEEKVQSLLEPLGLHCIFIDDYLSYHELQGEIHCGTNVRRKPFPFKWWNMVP", "assay": "PubChem AID 651868", "conditions": "recombinant PAD1, citrulline colorimetric, time-dependent inactivation; hits give high values"}
{"smiles": "NC1=CC(=O)c2ccc(-c3cccc(C(=O)O)n3)nc2C1=O", "values": [{"measurement": "kinact/KI", "result": 58.3, "unit": "M⁻¹ s⁻¹"}]}
